Results taken from patent publication US20090208597A1, “HEAT PROCESSED VEGETABILIC FIBER PREPARATION AND ITS USE AS INHIBITOR OF THE EFFECTS OF CARCINOGENIC SUBSTANCES IN HUMANS OR ANIMALS” (ESSENTYS AB, priority 2006, published 2009).

Key:
[1] = system: BALB mice; experiment: Potato fiber supplemented diet in acryl amide exposed mice, histomorphology of intestine and liver (Example 1); format: in vivo; settings: acryl amide added to the drinking water; 90 days
Method: The main aim of these studies was to see if a potato fiber supplemented diet had any effect on acryl amide induced cancer development in mice.
Seventy five 9-weeks old male and seventy five 7 to 9 weeks old female BALB mice (Laboratory), weighing about 20 g, were used. Mice were housed ten per box of the same sex. Solid food and water were allowed in sufficient quantities. The animals were kept in an animal house where the humidity and temperature were controlled and where a 12 h light period was kept. The experiment has been reviewed and approved by Lund University ethic committee, application M140-03.
2/ Labodiet MLF 2% and potato fiber preparation (Povex®). The receipt of this food/feed is based on the control food/feed. The food/feed was enriched with 2% of Povex®.
3/ Labodiet MLF 2% heated potato fiber preparation (Povex®). […]
It was found suitable to use the commercial (Sigma-Aldrich, St Louis, Mo.) acryl amide for electrophoresis in the form of powder (minimum 99%). […] Before the beginning of the experiment, the water consumption during 24 h of 5 groups of mice was measured. […] This consumption was used to calculate the concentration of the two doses of acryl amide: The high dose was calculated from 2 mg/day/kg b.w. and the low dose from 0.1 mg/day/kg b.w. […] The volume left in the bottle was measured and listed in a table in order to follow the consumption of acryl amide through the water. […]

[2] = system: small intestine of male BALB mice; experiment: Povex in food of mice treated with acrylamide, histomorphometry of small intestine (Example 4); format: in vivo
Method: The aim of this study was to investigate if regular and heat Povex can protect small intestine against acrylamide toxic influence. The point was to establish what histological changes can acrylamide cause to small intestine tissue and if Povex can reverse or decrease these possible changes.
Three months experiment was performed on males BALB mince. Two doses of acrylamide (2 mg/day/kg b.w., and 0.1 mg/day/kg b.w.) in drinking water and two types of Povex heated (Treated) and normal (Untreated) added to food were provided for animals.
Histology and histomorphometry of small intestine was performed. The examined parameters were: fractal dimension of small intestine, mitosis inside crypts and apoptosis count per mm^2 of tissue.
Seventy-five 9-weeks old male and seventy-five 7 to 9 weeks old female BALB mice (Laboratory), weighing about 20 g, were used in whole experiment. Mice were housed ten per box of the same sex. This part of experiment and analysis obtained from is made on twenty eight male BALB mice.
Three types of formulated mixtures were manufactured: • Labodiet MLF control. The receipt of this food is based on the energy needs according to the Polish norm for feeding domestic animals. • Labodiet MLF 2% n Povex. The receipt of this food is based one the control one. The food was enriched with 2% of Povex. • Labodiet MLF 2% praz Povex. The receipt of this food is based one the control one. The food was enriched with 2% of heated Povex till 160° C.
Before the beginning of the experiment, we measured water consumption in 24 hours of 5 groups of mice. The average of daily-consumption was 10 mL/day/kg b.w. This consumption was used to calculate the concentration of the two doses of acrylamide: The high dose was calculated from 2 mg/day/kg b.w. and the low dose from 0.1 mg/day/kg b.w. The first dilution of acrylamide in tap water was made directly with the powder and 3 L of both concentrations were prepared. […] The volume left in the bottle was measured and put in a table to follow the consumption of acrylamide through the water. […]

SMILES: C=CC(N)=O [Acryl amide, acryl amide]
- histomorphological parameters of the intestine and liver [1]: affected a majority of the measured histomorphological parameters
- number of mitosis inside small intestine crypt ([2]; small and large dose of AA with standard food vs control group): significant decrease
- number of apoptosis/mm^2 in small intestine tissue ([2]; standard food + large or low dose of AA): elevated number of apoptotic cells
- fractal dimension of small intestine mucosa ([2]; standard food and low dose of AA (0.1 mg) vs control group): difference between control group and animals getting standard food and low dose of AA
